Measurements published in US12207655B2, “Protoporphyrin IX derivatives and use thereof to improve the health of plants” (priority 2019, dated 2025).

Tests used:
[1] = tested on: Pseudomonas syringae pv. tabaci; test: Photodynamic control of Pseudomonas syringae pv. tabaci in PBS, colony counts after illumination; format: cell-based; conditions: 30 min dark then 1 hour illumination (about 1000 μmol/m2/s PAR), PBS control 8.7
Protocol: In this example, control of the gram-negative bacterial plant pathogen Pseudomonas syringae pv. tabaci with PP IX and modified PP IX was assessed, with and without chelating agents. Treatments were prepared in Phosphate Buffered Saline (PBS) in 96 well plates at desired concentrations. A bacterial suspension was inoculated into the PBS and incubated at 28° C. in the dark for 30 minutes. After 30 minutes, the 96 well plate was placed under illumination for 1 hour (at 21° C.). Following illumination, bacterial suspensions were serially diluted and 10 μL of each dilution is spread uniformly on Tryptic Soy Agar (TSA) plates and placed in the dark in an incubator at 28° C. for 48 hours. After 48 hours, bacterial colonies were counted, and the results were log transformed (log colony forming units (CFU)/mL). The relative inactivation was determined by taking the difference between log CFU (PBS control) and log CFU (treatments). Sample Illumination was provided by LED lights (Heliospectra RX30) emitting about 1000 μmol/m^2/s photosynthetically active radiation (PAR).

Sclerotinia homoeocarpa = test: Control of dollar spot fungus: radial growth of fungal plugs on PDA after treatment in PBS, dark vs light; format: cell-based; conditions: 31 μM + 0.21% BrijO10:ArlasolveDMI (1:4); for Mean Radial Growth: growth between 24 and 48 hours at 21° C; for % Inhibition: relative to non-amended control
Protocol: In this example, control of dollar spot fungus (Sclerotinia homoeocarpa) with PP IX and modified PP IX was assessed. Treatments were prepared in Phosphate Buffered Saline (PBS) in 24 well plates (in duplicates for light vs. dark incubation) at desired concentrations. Then, a 5 mm diameter plug of a Sclerotinia homoeocarpa isolate (3 isolates total tested) was inoculated into the PBS and incubated at 21° C. in the dark for 2 hours. After 2 hours, one of the 24 well plates (with isolates in triplicate) was left in the dark and one 24 well plate was placed under illumination for 1 hour (all at […]). Following illumination, fungal plugs were removed from PBS, blotted dry on sterile filter paper and transferred to non-amended Potato Dextrose Agar (PDA). Radial growth of the fungus was monitored daily until the growth of S. homoeocarpa reaches the edge of the Petri-dish. Illumination was provided by LED lights emitting about 1000 μmol/m2/s photosynthetically active radiation (PAR).

**Q.** Which results are given for “Protoporphyrin IX disodium salt [PP IX disodium salt]”?
**A.** log CFU/ml ([1]; 10 μM + 5 mM NaEDTA in PBS): 3.8 log CFU/ml; log CFU/ml ([1]; 10 μM in PBS, no chelating agent): 7.4 log CFU/ml; Mean Radial Growth (Sclerotinia homoeocarpa; Dark (no light exposure), PBS control 10.1): 10.5; % Inhibition (Sclerotinia homoeocarpa; Dark (no light exposure)): −3.8%; Mean Radial Growth (Sclerotinia homoeocarpa; Exposed to light for 1 hour (1000 PAR), PBS control 10.2): 0.0; % Inhibition (Sclerotinia homoeocarpa; Exposed to light for 1 hour (1000 PAR)): 100.0%
